Reference: ChEMBL document CHEMBL1145884, “Synthesis and biological activity of novel 1beta-methylcarbapenems with oxyiminopyrrolidinylamide moiety” (2003)

Tests used:
[1] = tested on: Escherichia coli; assay: Compound was evaluated for its antibacterial activity against Escherichia coli CCARM 1111 MDR; assay type: functional
[2] = tested on: Klebsiella pneumoniae; assay: Compound was evaluated for its antibacterial activity against Klebsiella pneumoniae 2 ESBL; assay type: functional
[3] = tested on: Klebsiella pneumoniae; assay: Compound was evaluated for its antibacterial activity against Klebsiella pneumoniae 5 ESBL; assay type: functional
[4] = tested on: Escherichia coli; assay: Compound was evaluated for its antibacterial activity against Escherichia coli TEM; assay type: functional
[5] = tested on: Shigella sonnei; assay: Compound was evaluated for its antibacterial activity against Shigella sonnei ATCC 9290; assay type: functional
[6] = tested on: Escherichia coli; assay: Compound was evaluated for its antibacterial activity against Escherichia coli CCARM 1113 MDR; assay type: functional
[7] = tested on: Pseudomonas aeruginosa; assay: Compound was evaluated for its antibacterial activity against Pseudomonas aeruginosa ATCC 27853; assay type: functional
[8] = tested on: Pseudomonas aeruginosa; assay: Compound was evaluated for its antibacterial activity against Pseudomonas aeruginosa 3 MDR; assay type: functional
[9] = tested on: Escherichia coli; assay: Compound was evaluated for its antibacterial activity against Escherichia coli CCARM 1114 MDR; assay type: functional
[10] = tested on: Klebsiella pneumoniae; assay: Compound was evaluated for its antibacterial activity against Klebsiella pneumoniae 9 ESBL; assay type: functional
[11] = tested on: Salmonella enteritidis; assay: Compound was evaluated for its antibacterial activity against […] enteritidis 3; assay type: functional, Salmonella enterica subsp. enterica serovar Enteritidis; conditions: Salmonella enterica
[12] = tested on: Salmonella enteritidis; assay: Compound was evaluated for its antibacterial activity against […] enteritidis; assay type: functional, Salmonella enterica subsp. enterica serovar Enteritidis; conditions: Salmonella enterica
[13] = tested on: Salmonella enteritidis; assay: Compound was evaluated for its antibacterial activity against […] enteritidis 1; assay type: functional, Salmonella enterica subsp. enterica serovar Enteritidis; conditions: Salmonella enterica
[14] = tested on: Escherichia coli; assay: Compound was evaluated for its antibacterial activity against Escherichia coli 0157:H7; assay type: functional
[15] = tested on: Salmonella typhimurium; assay: Compound was evaluated for its antibacterial activity against Salmonella Typhimurium 2; assay type: functional, Salmonella enterica subsp. enterica serovar Typhimurium; conditions: Salmonella enterica
[16] = tested on: Escherichia coli; assay: Compound was evaluated for its antibacterial activity against Escherichia coli DC 2; assay type: functional
[17] = tested on: Klebsiella oxytoca; assay: Compound was evaluated for its antibacterial activity against Klebsiella oxytoca 1082E; assay type: functional
[18] = tested on: Shigella flexneri; assay: Compound was evaluated for its antibacterial activity against Shigella flexneri ATCC 9199; assay type: functional
[19] = tested on: Klebsiella pneumoniae; assay: Compound was evaluated for its antibacterial activity against Klebsiella pneumoniae 7 ESBL; assay type: functional
[20] = tested on: Escherichia coli; assay: Compound was evaluated for its antibacterial activity against Escherichia coli CCARM 1112 MDR; assay type: functional
[21] = tested on: Escherichia coli; assay: Compound was evaluated for its antibacterial activity against Escherichia coli CCARM 1109 MDR; assay type: functional
[22] = tested on: Escherichia coli; assay: Compound was evaluated for its antibacterial activity against Escherichia coli CCARM 1115 MDR; assay type: functional
[23] = tested on: Escherichia coli; assay: Compound was evaluated for its antibacterial activity against Escherichia coli ATCC 25922; assay type: functional
[24] = tested on: Klebsiella pneumoniae; assay: Compound was evaluated for its antibacterial activity against Klebsiella pneumoniae 3 ESBL; assay type: functional
[25] = tested on: Klebsiella pneumoniae; assay: Compound was evaluated for its antibacterial activity against Klebsiella pneumoniae 10 ESBL; assay type: functional
[26] = tested on: Escherichia coli; assay: Compound was evaluated for its antibacterial activity against Escherichia coli CCARM 1110 MDR; assay type: functional
[27] = tested on: Escherichia coli; assay: Compound was evaluated for its antibacterial activity against Escherichia coli CCARM 1117 MDR; assay type: functional
[28] = tested on: Escherichia coli; assay: Compound was evaluated for its antibacterial activity against Escherichia coli DC 0; assay type: functional
[29] = tested on: Salmonella enteritidis; assay: Compound was evaluated for its antibacterial activity against […] enteritidis 2; assay type: functional, Salmonella enterica subsp. enterica serovar Enteritidis; conditions: Salmonella enterica
[30] = tested on: Klebsiella pneumoniae; assay: Compound was evaluated for its antibacterial activity against Klebsiella pneumoniae 6 ESBL; assay type: functional
[31] = tested on: Escherichia coli; assay: Compound was evaluated for its antibacterial activity against Escherichia coli CCARM 1116 MDR; assay type: functional
[32] = tested on: Pseudomonas aeruginosa; assay: Compound was evaluated for its antibacterial activity against Pseudomonas aeruginosa 2 MDR; assay type: functional
[33] = tested on: Pseudomonas aeruginosa; assay: Compound was evaluated for its antibacterial activity against Pseudomonas aeruginosa 1 MDR; assay type: functional
[34] = tested on: Enterobacter cloacae; assay: Compound was evaluated for its antibacterial activity against Enterobacter cloacae P99; assay type: functional
[35] = tested on: Salmonella typhimurium; assay: Compound was evaluated for its antibacterial activity against Salmonella Typhimurium; assay type: functional, Salmonella enterica subsp. enterica serovar Typhimurium; conditions: Salmonella enterica
[36] = tested on: Salmonella typhimurium; assay: Compound was evaluated for its antibacterial activity against Salmonella Typhimurium 1; assay type: functional, Salmonella enterica subsp. enterica serovar Typhimurium; conditions: Salmonella enterica
[37] = tested on: Klebsiella pneumoniae; assay: Compound was evaluated for its antibacterial activity against Klebsiella pneumoniae 1 ESBL; assay type: functional
[38] = tested on: Klebsiella pneumoniae; assay: Compound was evaluated for its antibacterial activity against Klebsiella pneumoniae 4 ESBL; assay type: functional
[39] = tested on: Escherichia coli; assay: Compound was evaluated for its antibacterial activity against Escherichia coli CCARM 1108 MDR; assay type: functional
[40] = tested on: Klebsiella pneumoniae; assay: Compound was evaluated for its antibacterial activity against Klebsiella pneumoniae 8 ESBL; assay type: functional

C[C@@H](O)[C@H]1C(=O)N2C(C(=O)[O-])=C(S[C@@H]3CN[C@H](C(=O)Nc4cccc(C(=O)O)c4)C3)[C@H](C)[C@H]12.O.[Na+]
MIC [1]: ≤ 0.008 µg/mL | MIC [2]: 0.016 µg/mL | MIC [3]: ≤ 0.008 µg/mL | MIC [4]: 0.016 µg/mL | MIC [5]: ≤ 0.008 µg/mL | MIC [6]: 0.06 µg/mL | MIC [7]: 4 µg/mL | MIC [8]: 8 µg/mL | MIC [9]: 0.25 µg/mL | MIC [10]: 0.016 µg/mL | MIC [11]: ≤ 0.008 µg/mL | MIC [12]: ≤ 0.008 µg/mL | MIC [13]: ≤ 0.008 µg/mL | MIC [14]: ≤ 0.008 µg/mL | MIC [15]: ≤ 0.008 µg/mL | MIC [16]: 0.016 µg/mL | MIC [17]: 0.03 µg/mL | MIC [18]: ≤ 0.008 µg/mL | MIC [19]: 0.25 µg/mL | MIC [20]: 0.016 µg/mL | MIC [21]: 0.06 µg/mL | MIC [22]: 0.06 µg/mL | MIC [23]: ≤ 0.008 µg/mL | MIC [24]: 0.5 µg/mL | MIC [25]: 0.016 µg/mL | MIC [26]: 0.03 µg/mL | MIC [27]: 0.03 µg/mL | MIC [28]: ≤ 0.008 µg/mL | MIC [29]: ≤ 0.008 µg/mL | MIC [30]: 0.06 µg/mL | MIC [31]: ≤ 0.008 µg/mL | MIC [32]: 8 µg/mL | MIC [33]: 8 µg/mL | MIC [34]: 0.06 µg/mL | MIC [35]: 0.016 µg/mL | MIC [36]: ≤ 0.008 µg/mL | MIC [37]: 0.016 µg/mL | MIC [38]: 0.06 µg/mL | MIC [39]: 0.016 µg/mL | MIC [40]: 1 µg/mL
